Values quoted from earlier work, collected in PMC6504684 (Frontiers in Pharmacology, 2019).

Test system: α9α10 nAChRs, mutation α9-Asp121Leu
Settings: cited from earlier work

## CC(=O)OCC[N+](C)(C)C [ACh, acetylcholine]
  increase of EC50: ~30 times
